# Assay: Microsomal stability in rat liver microsomes
# Conditions: Rat liver microsomes 1 mg/mL protein, 1 μM compound, 37° C., NADPH 4 mM
# Experimental: Several compounds were evaluated for stability in rat liver microsomes.
# The test compounds (1 μM) were incubated at 37° C. in phosphate buffer (50 mM, pH 7.4) containing rat liver microsomes (1 mg/mL protein) and NADPH (Nicotinamide Adenine Dinucleotide Phosphate, reduced form) (4 mM). The incubation mixtures were quenched with trichloroacetic acid (0.3 M) over 0, 5, 15, 30 min time-course. Quenched solutions were centrifuged and supernatants were transferred for LC/MS quantitation. The half life of a test compounds was derived from the compound stability curve over the time course.
row,T1/2,SMILES
1,2.5 min,"N#Cc1ccccc1Cn1c(N2CCCC(N)C2)nc2ccccc2c1=O (stereo not drawn) [Example 1, 2-[2-(3-Amino-piperidin-1-yl)-4-oxo-4H-quinazolin-3-ylmethyl]-benzonitrile]"
2,31 min,"N#Cc1ccccc1Cn1c(N2CCCC(N)C2)nc2ccc(F)cc2c1=O (stereo not drawn) [Example 6, 2-[2-(3-Amino-piperidin-1-yl)-6-fluoro-4-oxo-4H-quinazolin-3-ylmethyl]-benzonitrile]"
3,106.6 min,"COc1cc2nc(N3CCCC(N)C3)n(Cc3ccccc3C#N)c(=O)c2cc1OC (stereo not drawn) [Example 2, 2-[2-(3-Amino-piperidin-1-yl)-6,7-dimethoxy-4-oxo-4H-quinazolin-3-ylmethyl]-benzonitrile]"
